Reference: US20100267638A1, “EXOSITE-DIRECTED THROMBIN INHIBITORS” (CLEVELAND STATE UNIVERSITY, priority 2003, published 2010)
“And” between values parts separate entries of the source, which are not always exact repeats. Identical values can stand only once. “Also recorded” adds a separate entry of the source. No end group written: not given here. *: point of attachment. SO3 = O=S(=O)(O)*

How the values were obtained:
[1] = target: factor Xa (Homo sapiens, UniProt P00742); experiment: Cofactor effect of factor Va heavy chain peptides on factor Xa alone; assay type: biochemical; conditions: peptide incubated with factor Xa alone
Sequence of factor Xa (P00742 235-488 limits assumed): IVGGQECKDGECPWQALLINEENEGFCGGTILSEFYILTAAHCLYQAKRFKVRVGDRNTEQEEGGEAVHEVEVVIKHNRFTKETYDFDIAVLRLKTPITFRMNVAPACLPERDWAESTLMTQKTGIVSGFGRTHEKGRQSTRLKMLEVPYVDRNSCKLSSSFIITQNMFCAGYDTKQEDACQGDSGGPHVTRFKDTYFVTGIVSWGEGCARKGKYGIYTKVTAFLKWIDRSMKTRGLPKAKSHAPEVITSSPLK
Sequence of factor Xa (P00742 41-179 limits assumed): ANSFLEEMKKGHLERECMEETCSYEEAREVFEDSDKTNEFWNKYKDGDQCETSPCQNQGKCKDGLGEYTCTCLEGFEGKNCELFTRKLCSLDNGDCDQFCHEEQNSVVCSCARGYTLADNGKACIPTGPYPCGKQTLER

[2] = target: T1, prothrombinase (Homo sapiens, UniProt P00734); experiment: Assay measuring thrombin formation (prothrombinase inhibition by peptides, DAPA fluorescence); assay type: biochemical; conditions: for inhibition of prothrombinase activity with increasing peptide: FIG. 10A, up to 8000 nM; for effect on prothrombinase / factor Va cofactor activity at fixed concentration: peptide 100 μM
T1 construct: purchased Haematologic Technologies Inc. (Essex Junction, Vt.)
Experimental: Assay measuring thrombin formation. The formation of thrombin was analyzed using the fluorescent thrombin inhibitor DAPA as described using a Perkin Elmer LS-50B Luminescence Spectrometer (Perkin-Elmer LLC, Norwalk Conn.) with λex=280 nm, λem=550 nm and a 500 nm long pass filter in the emission beam (Schott KV-500). […] In all cases peptides were preincubated with factor tor Va prior to the assay as described in the legend to the figures. The final concentration of factor tor Va in the mixture was 4 nM with factor Xa at 10 nM, prothrombin at 350 nM, DAPA at 700 nM, in the presence of PCPS vesicles (10 μM). The initial rate of thrombin formation (nM IIa·min^−1) was calculated as described during the initial 5-10 sec of the reaction. To verify if the peptides have any effect on the active-site of thrombin, control experiments were performed as follows: a given peptide (at 100 μM) was incubated in the assay buffer containing DAPA (700 nM); the base line was monitored for 30 sec; thrombin (350 nM) was then added to the mixture and the fluorescent intensity resulting from the complexation of DAPA with the active site of thrombin was monitored for 60 sec. The slope of the reaction measuring thrombin formation in the presence of a given peptide during the first 5 sec was calculated and compared to the slope of a reaction obtained in the absence of peptide. It is noteworthy that under the conditions employed the thrombin-DAPA interaction occurred fast and the calculated slope of the reaction was sensitive to all parameters used. […] All experiments were performed in triplicates or as indicated. The concentration of each peptide given in the figures and figure legends is their final concentration in the assay. […] In some cases the data were also analyzed and plotted using DeltaGraph (DeltaPoint, Monterey, Calif.).
Specifically, peptides were incubated with factor tor Va as described herein at a fixed concentration (100 μM). The percent of factor tor Va cofactor activity was calculated by comparing the activity of prothrombinase in the presence of a given peptide to the activity of prothrombinase determined in a control reaction in the absence of peptide and in the presence of factor Xa. […] The control peptide represents a pentadecapeptide from the middle portion of factor tor Va heavy chain (P15H) (SEQ ID NO. 22). […] All other peptides from region 680-709 had no significant effect on prothrombinase activity.
HC3 represents amino acid sequence 690-699 of factor tor Va heavy chain; HC4 contains the sequence 695-704 of human factor tor Va heavy chain; P15H represents amino acid sequence 337-351 from the middle portion of human factor tor Va heavy chain. […] The concentration of each peptide given on the x axis represents its final concentration in the prothrombinase mixture. […] Thus, both peptides show similar inhibitory potential.

[3] = Clotting time as a function of peptide concentration (FIG. 12); conditions: peptide 500 nM
From the text: FIG. 12 is a graph illustrating clotting time as a function of concentration of various peptides of interest as follows: DYDYQ (SEQ ID NO. 11) (filled squares); DYDYQ (1, 2) (or as designated in shorthand form, D5Q1,2) (SEQ ID NO. 9) (filled triangles); DYDYQ-1 (SEQ ID NO. 7) (filled inverted triangles); and DYDYQ-2 (SEQ ID NO. 8) (filled diamonds).

[4] = target: T2, [OG488]-EGR-hXa-human factor tor Va (Homo sapiens, UniProt P00742); experiment: Fluorescence anisotropy of preformed membrane-bound [OG488]-EGR-hXa-factor Va complex; assay type: binding; conditions: up to 300 μM peptide
T2 construct: purchased Haematologic Technologies Inc. (Essex Junction, Vt.)
T2 sequence (P00742 41-179 limits assumed): as above
T2 sequence (P00742 235-488 limits assumed): as the sequence (P00742 235-488 limits assumed) above
Experimental: Fluorescence Anisotropy measurements. Fluorescence anisotropy of [OG488]-EGR-hXa was measured using a Perkin Elmer LS-50B Luminescence Spectrometer in L-format as recently described. Anisotropy measurements were performed in a quartz cuvette under constant stirring (low) with λex=490 nm, λem=520 nm with a long pass filter (Schott KV-520) in the emission beam. […] The concentration of peptide given in each graph is the final concentration of the peptide in the assay mixture. […] In some cases the data were also plotted using DeltaGraph (DeltaPoint, Monterey, Calif.).
HC3 and HC4 were also tested for their ability to interfere with the fluorescence anisotropy of a preformed complex composed of membrane-bound [OG488]-EGR-hXa-human factor tor Va as described. […] The peptides must thus impair another function of the cofactor within prothrombinase.

[5] = target: T3, active-site-immobilized thrombin (Homo sapiens, UniProt P00734); experiment: Direct binding of the peptides to thrombin-agarose (chromatography); conditions: 400 μg peptide, 2.5 ml column, elution 2M NaCl
T3 construct: Factor Xa cleaves prothrombin to form thrombin; purchased Haematologic Technologies Inc. (Essex Junction, Vt.)
Experimental: Direct binding of the peptides to thrombin. Thrombin was immobilized onto agarose through the active site as described. Peptide solutions of HC1-HC5 (SEQ ID NO. 2-6, respectively), D13R (SEQ ID NO. 21), DYDYQ (SEQ ID NO. 11), and P15H (SEQ ID NO. 22) were dissolved in water to a given concentration and then diluted in 20 mM Hepes, 0.1 M NaCl, pH 7.4 in a manner that 400 μg was contained in each starting solution. In control experiments it was determined that the maximum amount of peptide that could be retained by the thrombin-agarose column was 400 μg. Since some of the peptides contain aromatic amino acid residues, their concentration was also measured by optical density.
Mass spectrometry instruments and conditions. The identity of all peptides found in the flow-through or the elution of the thrombin-agarose column was verified by mass spectrometry. Since the peptides were in a buffer solution, we used Liquid Chromatography/Mass Spectrometry (LC/MS) for their identification. In this procedure peptides are first separated from the salt content of the buffer using an HPLC system (HP 1100, HPLC gradient system, Agilent Technologies, Palo Alto Calif.) with a C18 column (1 mm×15 cm, GraceVydac, Hesperia Calif.) with buffers A (0.3% acetic acid in water) and B (0.3% acetic acid in acetonitrile). The elution of the column was monitored with a Micromass Quatro II ESI-Triple Quadrupole Mass Spectrometer (Waters, Milford Mass.). The data were collected using a Compaq Professional Workstation AP200 (Hewlett-Packard, Palo Alto Calif.) and analyzed by the software MassLynx v3.3 (Waters, Milford Mass.).
Direct interaction of hirudin-like peptides from factor tor Va heavy chain With thrombin-agarose. To ascertain that the peptides of interest are inhibitory of prothrombinase activity and contain a binding site for thrombin, the interaction of all peptides with active-site-immobilized thrombin was studied in chromatographic experiments and is shown in FIG. 5. In FIG. 5, small scale chromatography of hirudin-like peptides was performed on a 2.5 ml thrombin-agarose. Each run represents 400 μg of peptide. This amount of peptide was determined to saturate the specific sites of thrombin of the column used (2.5 ml). Elution was performed with 2M NaCl and was started at the point indicated by the arrow (fraction #30). The presence of the peptides in the corresponding fractions was monitored by absorbance at 280 nm (shown on the y axis) and by LC/MS (inset). […] Specifically, these peptides were treated similarly to all other peptides and similar fractions were collected. Aliquots from fractions #7 and #35 from each separate experiment were submitted to LC/MS analysis as described herein (depicted by the hatched arrows at the bottom of the chromatogram). The results from tube #7 from three chromatograms are depicted. The data are presented as % intensity of the signal as a function of the mass of the peptide divided by the charge (m/z). FIG. 5A, HC1 (Mr calculated 1268); FIG. 5B, HC2 (Mr calculated 1132); FIG. 5C, HC5 (Mr calculated 1053). The spectrum of HC1 has two major peaks: at 635.5 and at 424, and one minor peak at 1270 (1268+1). The peak at 635.5 represents the peptide (mass/charge) with two positive charges ([…]) i.e. [(1268+2=1270)]/2=635 whereas, the peak at 424 represents HC1 with three positive charges ([…]) i.e. [(1268+3=1271)]/3=424. […] HC5 spectrum has two major peaks: one at 528 and one at 352. The peak at 528 represents the peptide with two positive charges ([…]) i.e. [(1053+2=1055)]/2=527.5 while, the other peak represents HC5 with three positive charges ([M+31-]^2+) i.e. [(1053+3=1056)]/3=352. The minor peak at 1054 represents the peptide with one charge. It is noteworthy, that in gas phase the number of protons attached to each peptide depends on the number (quantity) of basic residues contained in each peptide. […] Thus, HC1 and HC5 are more likely to bind two or three protons than HC2. […]

[6] = test system: factor V deficient plasma; experiment: Clotting activity of recombinant factor V molecules; conditions: for Activity / Specific activity / clotting time: factor V species at 2.5 nM
Experimental: Determination of factor V/tor Va clotting activity of the recombinant molecules. Cofactor activity of wild type and mutant molecules was measured in a clotting assay using factor V deficient plasma prior and after activation by thrombin (15 min, 37° C.) and RVV-V activator (2 hr, 37° C.) as described. The values were standardized to the percentage of control. A linear semi-log graph was constructed using known concentrations of purified factor V (U/ml as a function of clotting time). The assay endpoint was determined by visualization of the fibrin clot. The activity of the factor VNa solution (U/ml) was determined by extrapolation from the graph. The concentration of the recombinant molecules was determined by a recently described ELISA. Finally, the numbers were combined to obtain the specific activity of the recombinant factor V solutions (U/mg).

Substance: AP4′: nine amino acid peptide, residues 323-331, from N42R (EYFIAAEEV; listed as Homo sapiens)
- cofactor effect on factor Xa [1]: generated a cofactor effect

Substance: DY(—SO3)DYQ (DY(SO3)DYQ) [DYDYQ-1, DYDYQ with first Y sulfonated]
- inhibition of prothrombinase activity with increasing peptide [2]: significant inhibitory effects
- clotting time [3]: relatively long clotting times

Substance: DYDY(—SO3)Q (DYDY(SO3)Q) [DYDYQ-2, DYDYQ with second Y sulfonated]
- inhibition of prothrombinase activity with increasing peptide [2]: significant inhibitory effects
- clotting time [3]: relatively long clotting times

Substance: DYDYQNRLAA [HC4]
- Vmax of prothrombinase in presence of increasing peptide ([2]; HC4 0.5-2 μM, increasing prothrombin): ~525±30 nM IIa/min
- Ki ([2]; calculated from IC50=Ki(1+S0/Km), Km 0.4 μM, S0 350 nM prothrombin, read-out: Ki of prothrombinase inhibition): 5.3 µM and ~5.3 µM
- IC50 ([2]; factor Va 4 nM, factor Xa 10 nM, prothrombin 350 nM, PCPS 10 μM, peptide preincubated with factor Va): 10 µM and ~10 µM
- type of inhibition of prothrombinase with respect to prothrombin ([2]; kinetic analyses, increasing prothrombin and peptide): competitive type of inhibition; also recorded: competitive inhibitors
- effect on prothrombinase / factor Va cofactor activity at fixed concentration [2]: inhibited prothrombinase; also recorded: complete inhibition
- interference with binding of factor Va to [OG488]-EGR-hXa (anisotropy) [4]: No significant decrease; also recorded: unable to interfere with the binding of factor tor Va
- interaction with immobilized thrombin (thrombin-agarose) [5]: eluted from the column with high-salt buffer; also recorded: interact with immobilized thrombin

Substance: E5A: five amino acid peptide, residues 323-327, from N42R (EYFIA; listed as Homo sapiens)
- cofactor effect on factor Xa [1]: generated a cofactor effect

Substance: Factor V^2K2F: quadruple mutant, recombinant human factor V with mutations D695→K, Y696→F, D697→K, Y698→F
- ability to promote clotting [6]: unable to promote clotting
- Activity [6]: 0.0046 U/ml
- Specific activity [6]: 5.6 U/mg
- clotting time [6]: 66.7 ± 1.3 s

Substance: HC1: overlapping 10 amino acid peptide from region 680-709 of human factor Va heavy chain (KMHDRLEPED; listed as Homo sapiens)
- interaction with immobilized thrombin (thrombin-agarose) [5]: present in the flow-through

Substance: HC2: overlapping 10 amino acid peptide from region 680-709 of human factor Va heavy chain (LEPEDEESDA; listed as Homo sapiens)
- interaction with immobilized thrombin (thrombin-agarose) [5]: present in the flow-through

Substance: N42R: 42 amino acid peptide from the middle portion of factor Va heavy chain, residues 307-351 of factor V (NLKKITREQRRHMKRWEYFIAAEEVIWDYAPVIPANMDKKYR; listed as Homo sapiens)
- cofactor effect on factor Xa [1]: increasing the catalytic efficiency of the enzyme by several-fold

Substance: P15H: negative control pentadecapeptide, amino acid sequence 337-351 from the middle portion of human factor Va heavy chain (PVIPANMDKKYRSQH) [reference compound]
- effect on prothrombinase / factor Va cofactor activity at fixed concentration [2]: no effect on cofactor activity; also recorded: no effect on prothrombinase function
- interaction with immobilized thrombin (thrombin-agarose) [5]: did not interact with thrombin

Substance: Wild type FV: recombinant wild type human factor V expressed in COS-7L cells
- specific clotting activity after activation by RVV-V activator ([6]; activated by RVV-V activator): 570 U/mg
- specific clotting activity after activation by thrombin ([6]; activated by thrombin): 497 U/mg
- Activity [6]: 0.12 U/ml
- Specific activity [6]: 145 U/mg
- clotting time [6]: 32.1 ± 1.2 s
